Measured values published in US9675702B2, “Methods and compositions for the sustained release of chromium” (JDS Therapeutics, LLC, priority 2007, dated 2017).
Read-outs that look alike come from different tables or passages of the source.

Legend:
rats = settings: cited from earlier work
[1] = cited from earlier work
Wistar rats = test: 12-week chromium supplementation in water of rats fed normal or high fat diet; serum glucose, cholesterol, triglycerides, free fatty acids; type: in vivo; settings: for reduction in serum glucose levels compared with other chromium supplementation: same total elemental chromium; for serum glucose levels / serum triglyceride levels / free fatty acid levels / total serum cholesterol levels: 12 weeks; for serum glucose levels: 1.43 μg chromium in water; for total serum cholesterol levels: rats fed a normal diet (FIG. 3A)
Protocol: Wistar rats were reared at the temperature of (22±2° C.), humidity (55±5%) and a 12/12 h light/dark cycle. Pellet food and water were provided ad libitum. Rats were randomly assigned to one of eight treatment groups. Group 1: Control rats were fed standard diet (12% of calories as fat) for 12 weeks. Group 2: Rats were fed standard diet with chromium picolinate ([…] 1.43 μg chromium) included in the water for 12 weeks. Group 3: […] Group 4: […] Group 5: Rats were fed high fat diet (40% of calories as fat) for 12 weeks. Group 6: Rats were fed high-fat diet (40% of calories as fat) and with chromium picolinate (14.3 μg, providing 1.43 μg chromium) included in the water for 12 weeks. Group 7: […] Group 8: […] Bodyweight, serum glucose, composite insulin sensitivity index (CISI), serum cholesterol, serum triglycerides and serum free fatty acid levels were measured. The baseline levels for the control rats (no chromium supplementation) that were fed normal or high fat diets are shown in Table 1, below. Serum glucose levels, serum cholesterol levels, serum triglyceride levels, and free fatty acid levels were measured in all groups after twelve weeks.

skeletal muscle cells = test: Glucose uptake ([3H]-deoxyglucose) in cultured skeletal muscle cells with or without insulin; type: cell-based; settings: insulin-stimulated cells; versus cultures without chromium supplementation
Protocol: The following example describes experiments that compared the effects of chromium supplementation in the form of chromium picolinate versus a combination of chromium picolinate:chormium histidinate (1:1 elemental chromium) on glucose uptake in skeletal muscle cells. The amounts of chromium picolinate and the combination were adjusted so as to provide equimolar amounts of elemental chromium. […] To assess glucose uptake, [^3H]C-deoxyglucose was added to cultures of skeletal muscle, in media with or without insulin and with or without the indicated chromium supplementation. Uptake of the labeled glucose by the cells was calculated.

[2] = rats fed a high fat diet (FIG. 4B)
[3] = rats fed a high fat diet (FIG. 5B)
[4] = rats fed a normal diet (FIG. 4A)
[5] = rats fed a normal diet (FIG. 5A)

| Compound | serum triglyceride levels (Wistar rats; [2]) | free fatty acid levels (Wistar rats; [3]) | total serum cholesterol levels (Wistar rats) | serum triglyceride levels (Wistar rats; [4]) | free fatty acid levels (Wistar rats; [5]) | other results |
| --- | --- | --- | --- | --- | --- | --- |
| [Cl][Cr]([Cl])[Cl] [chromium chloride] | – | – | – | – | – | toxic effects (rats; rats, levels several thousand times the upper limit of the ESADDI for chromium for humans (based on body weight)): without toxic effects |
| N[C@@H](Cc1c[nH]cn1)C(=O)O [histidine] | – | – | – | – | – | pKa [1]: ~6.0 |
| chromium histidinate | significant decrease | significant decrease | significant decrease | significant decrease | significant decrease | reduction in serum glucose levels compared with other chromium supplementation (Wistar rats; high fat diet rats (FIG. 2B)): significantly greater degree than chromium picolinate; serum glucose levels (Wistar rats; high-fat fed rats): decreased serum glucose levels; reduction in serum glucose levels compared with other chromium supplementation (Wistar rats; normal diet rats (FIG. 2A)): significantly greater degree than chromium picolinate; serum glucose levels (Wistar rats; normal diet rats): decreased serum glucose levels |
| chromium picolinate | significant decrease | significant decrease | significant decrease | significant decrease | significant decrease | glucose uptake (skeletal muscle cells): stimulated glucose uptake; toxic effects (rats; rat, in vivo): without toxic effects |
